From patent US20200261534A1, “NEW TREATMENTS OF MULTIPLE MYELOMA” (priority 2017, published 2020)
Read-outs that look alike come from different tables or passages of the source. Starred links: 1 amine or outer side, 2 acyl side, 3 side chain; linkers in the order of their positions; H or OH if unused. Positions of bridges follow the written chain, without caps; N, C: chain ends. Non-standard residues stand in square brackets, D forms with d. Residues, ends and D or L forms follow the SMILES beside them. No end group written: not given here. ξ: configuration not given here. Biphenyl(4,4'-CH2)2 = c1cc(-c2ccc(C[*:2])cc2)ccc1C[*:1]; ξαMeNle(6-ylidene) = CC(CCCC=[*:3])(N[*:1])C(=O)[*:2]; X1 = CC(CCCCCCC=[*:3])(N[*:1])C(=O)[*:2]; Octanediyl(1,8) = C(CCCC[*:2])CCC[*:1]; ξC = NC(CS)C(=O)O

Tests used:
Type in all cases: cell-based
[1] = system: MM.1S, B Lymphoblast (multiple myeloma); assay: MTT viability assay, MM.1S
Protocol: MM.1S, B Lymphoblast (multiple myeloma), ATCC: CRL-2974
(§1) Cell lines A549, MCF-7 and RAMOS were cultured in incubator under CO2 (6%) at 37° C. in DMEM high glucose (Dulbecco's Modified Eagle Solution, Gibco-BRL 31966-21) medium with 10% fetal bovine serum inactivated (FBS) (Gibco-BRL 10106-169). Cell lines HL-60 and MM.1S were cultured in incubator at 37° C. in RPMI-1640 (Sigma R8758) medium with 10% of fetal bovine serum inactivated (FBS) and 2 mM glutamine (Sigma G7513). Cell lines BJ were cultured in incubator under CO2 (6%) at 37° C. in Eagle's Minimum Essential Medium (Sigma, M-2279) with 10% fetal bovine serum inactivated (FBS) (Gibco-BRL 10106-169).
(§2) During the amplification step and the assays adherent cells were rinsed with DPBS (Dulbecco's Phosphate Buffered Saline, Sigma D1283) three times and afterward treated for 5 minutes with trypsin ([…]) (Gibco-BRL, 15400054) in solution of DPBS at 37° C., and, once detached, transferred in the culturing medium. No-adherent cells were centrifuged and transferred in the culturing medium. Cells were counted in a Neubauer chamber after labelling with Tripan-Blue.
Cells were seeded at a density of 10000 cells/well in 100 μl of medium in 96 well plates. After 24 h, the compounds to be tested were added to calculate the dose/response curve at the starting concentration of 100 μM with serial dilutions (1:1). Controls are the untreated cells. Each experiment was performed in triplicate.
(§3) Cells were incubated with the compounds at the indicated concentrations during 24-72 h in incubator under CO2 atmosphere at 37° C. Then, cell viability was measured by means of MTT (3-(4,5-dimethylthiazol-2-yl)-2,5-diphenyltetrazolium bromide) assay. Stock solution of MTT (475989 Calbiochem) was 5 mg/ml in PBS. 1×.10 μl/well of MTT solution were added and the plate was incubated for 3-4 hr. The medium was discarded and 100 μl of extracting buffer (PBS 1×, 15% SDS, 50% […] N,N-Dimethylformamide, pH 4.7) were added to each well. Plates were incubated for 16 h at room temperature under orbital shaking. Absorbance at 570 nm was finally measured. As negative control (experiment noise) 3 wells were treated with 20 μl/well of a solution of SDS 10% in H2O.
(§4) Data analysis was performed calculating the percentage of cell viability normalized vs. the values of negative control, which was considered equal to 100%. The dose/response curve was fitted through the sigmoidal equation dose-response (variable slope) and the IC50 values were calculated as follow:
Y=Bottom+(Top−Bottom)/(1+10^{[(LogIC50−X)*HillSlope]},
All cell lines were cultured in incubator at 37° C. in RPMI-1640 (Sigma R8758) medium with 10% of fetal bovine serum inactivated (FBS) and 2 mM glutamine (Sigma G7513). During the amplification step cells were centrifuged and transferred into the culturing medium. Cells were counted in a Neubauer chamber after labelling with Tripan-Blue.
as §3, with “peptidomimetic compound (S09)” for “compounds”
Cell lines A549 and MBA-MD231 were cultured in incubator under CO2 (6%) at 37° C. in DMEM high glucose (Dulbecco's Modified Eagle Solution, Gibco-BRL 31966-21) medium with 10% fetal bovine serum inactivated (FBS) (Gibco-BRL 10106-169). […]

[2] = system: A549, epithelial (lung cancer); assay: MTT viability assay, A549
Protocol: A549, epithelial (lung cancer), ATCC: CCL-185
as §1
as §2, with “Tripan-Blue. […]” for “Tripan-Blue.”
as §3
as §4, with “follow: […]” for “follow:”

[3] = system: RAMOS, B lymphocyte (Burkitt's Lymphoma); assay: MTT viability assay, RAMOS
Protocol: RAMOS, B lymphocyte (Burkitt's Lymphoma), ATCC: CRL-1596 […] During the amplification step and the assays adherent cells were rinsed with DPBS (Dulbecco's Phosphate Buffered Saline, Sigma D1283) three times and afterward treated for 5 minutes with trypsin ([…]) (Gibco-BRL, 15400054) in solution of DPBS at 37° C., and, once detached, transferred in the culturing medium. No-adherent cells were centrifuged and transferred in the culturing medium. Cells were counted in a Neubauer chamber after labelling with Tripan-Blue. […] Cells were seeded at a density of 10000 cells/well in 100 μl of medium in 96 well plates. […] Controls are the untreated cells. Each experiment was performed in triplicate. Cells were incubated with the compounds at the indicated concentrations during 24-72 h in incubator under CO2 atmosphere at 37° C. […] Stock solution of MTT (475989 Calbiochem) was 5 mg/ml in PBS. 1×.10 μl/well of MTT solution were added and the plate was incubated for 3-4 hr. […] Plates were incubated for 16 h at room temperature under orbital shaking. Absorbance at 570 nm was finally measured. […] The dose/response curve was fitted through the sigmoidal equation dose-response (variable slope) and the IC50 values were calculated as follow: Y=Bottom+(Top−Bottom)/(1+10^{[(LogIC50−X)*HillSlope]},

[4] = Ramos, MTT, incubation 24-72 h, Table 3, read-out: IC50 values
[5] = MM.1S, MTT, incubation 24-72 h, Table 3, read-out: IC50 values
[6] = A549, MTT, incubation 24-72 h, Table 3, read-out: IC50 values
[7] = Ramos, same protocol as Example 2, Table 6, read-out: Compound (IC50)
[8] = MM.1S, same protocol as Example 2, Table 6, read-out: Compound (IC50)
[9] = A549, same protocol as Example 2, Table 6, read-out: Compound (IC50)

Row | Compound | IC50 [1] [µM] | IC50 [2] [µM] | IC50 [3, 7] [µM] | IC50 [1, 8] [µM] | IC50 [2, 9] [µM] | also measured
1 | CC[C@H](C)[C@H](NC(=O)[C@H](Cc1ccc(O)cc1)NC(=O)[C@H](C)NC(=O)[C@@H]1CSCc2ccc(cc2)-c2ccc(cc2)CSC[C@H](NC(=O)[C@H](CCCCN)NC(=O)[C@@H]2CCCN2C(=O)[C@H](C)N)C(=O)N[C@@H](C(C)C)C(=O)N[C@@H]([C@@H](C)CC)C(=O)N[C@@H](CC(C)C)C(=O)N[C@@H](CCCCN)C(=O)N[C@@H](CCCCN)C(=O)N[C@@H](C)C(=O)N1)C(=O)N[C@@H](CC(C)C)C(=O)N[C@@H](CO)C(=O)O [IDP-P1708161] (H-APKCVILKKACAYILS-OH; linker 4-11 via Biphenyl(4,4'-CH2)2; N-terminus and C-terminus assumed) | 33 ± 15 | 42 ± 6 | – | – | – | IC50 ([1]; 24 h): 10 µM; IC50 ([1]; 72 h): 15 µM
2 | CCc1ccc(/C=C2/SC(=S)NC2=O)cc1 [10058-F4, reference compound] | – | – | – | – | – | IC50 [3, 4]: ~57 µM; IC50 [1, 5]: > 100 µM; IC50 [2, 6]: > 100 µM
3 | CC[C@H](C)[C@H](NC(=O)[C@H](Cc1ccc(O)cc1)NC(=O)[C@H](C)NC(=O)[C@@H](NC(=O)[C@H](C)NC(=O)C1(C)CCCC=CCCCCCCC(C)(NC(=O)[C@H](C)N)C(=O)N[C@@H](CCCCN)C(=O)N[C@@H](C(C)C)C(=O)N[C@@H](C(C)C)C(=O)N[C@@H]([C@@H](C)CC)C(=O)N[C@@H](CC(C)C)C(=O)N[C@@H](CCCCN)C(=O)N1)[C@@H](C)O)C(=O)N[C@@H](CC(C)C)C(=O)N[C@@H](CO)C(=O)O (stereo partly shown) [IDP-S19, AXKVVILKXATAYILS] (H-A[X1]KVVILK[ξαMeNle(6-ylidene)]ATAYILS-OH; staple 2-9) | – | – | > 100 | > 100 | > 100 | –
4 | CC[C@H](C)[C@H](NC(=O)[C@H](Cc1ccc(O)cc1)NC(=O)C1(C)CCCC=CCCCCCCC(C)(NC(=O)[C@@H](NC(=O)[C@H](CCCCN)NC(=O)[C@@H]2CCCN2C(=O)[C@H](C)N)C(C)C)C(=O)N[C@@H]([C@@H](C)CC)C(=O)N[C@@H](CC(C)C)C(=O)N[C@@H](CCCCN)C(=O)N[C@@H](CCCCN)C(=O)N[C@@H](C)C(=O)N[C@@H]([C@@H](C)O)C(=O)N1)C(=O)N[C@@H](CC(C)C)C(=O)N[C@@H](CO)C(=O)O (stereo partly shown) [IDP-S21, APKVXILKKATXYILS] (H-APKV[X1]ILKKAT[ξαMeNle(6-ylidene)]YILS-OH; staple 5-12) | – | – | > 100 | > 100 | > 100 | –
5 | CC[C@H](C)[C@H](NC(=O)[C@@H](NC(=O)[C@@H](NC(=O)[C@H](CCCCN)NC(=O)[C@@H]1CCCN1C(=O)[C@H](C)N)C(C)C)C(C)C)C(=O)NC1(C)CCCCCCC=CCCCC(C)(C(=O)N[C@@H](CC(C)C)C(=O)N[C@@H](CO)C(=O)O)NC(=O)[C@H](Cc2ccc(O)cc2)NC(=O)[C@H](C)NC(=O)[C@H]([C@@H](C)O)NC(=O)[C@H](C)NC(=O)[C@H](CCCCN)NC(=O)[C@H](CCCCN)NC1=O (stereo partly shown) [IDP-S17, APKVVIXKKATAYXLS] (H-APKVVI[X1]KKATAY[ξαMeNle(6-ylidene)]LS-OH; staple 7-14; N-terminus and C-terminus assumed) | > 100 | > 100 | – | – | – | IC50 [3]: > 100 µM
6 | CC[C@H](C)[C@H](NC(=O)[C@H](Cc1ccc(O)cc1)NC(=O)[C@H](C)NC(=O)C1(C)CCCC=CCCCCCCC(C)(NC(=O)[C@H](CCCCN)NC(=O)[C@@H]2CCCN2C(=O)[C@H](C)N)C(=O)N[C@@H](C(C)C)C(=O)N[C@@H]([C@@H](C)CC)C(=O)N[C@@H](CC(C)C)C(=O)N[C@@H](CCCCN)C(=O)N[C@@H](CCCCN)C(=O)N[C@@H](C)C(=O)N1)C(=O)N[C@@H](CC(C)C)C(=O)N[C@@H](CO)C(=O)O (stereo partly shown) [S09, APKXVILKKAXAYILS—OH] (H-APK[X1]VILKKA[ξαMeNle(6-ylidene)]AYILS-OH; staple 4-11; N-terminus assumed) | – | – | ~28 | ~6.2 | 9.4 ± 4.1 | IC50 [3, 4]: ~28 µM; IC50 ([1]; MM1S, MTT, 24-72 h, Table 7, read-out: IC50 values in μM for S09): 7.5 µM; IC50 [1, 5]: ~6.2 µM; IC50 ([2]; A549, MTT, 24-72 h, Table 12, read-out: IC50 values): 6.3 ± 0.5 µM; IC50 [2, 6]: 9.4 ± 4.1 µM
7 | CC[C@H](C)[C@H](NC(=O)[C@H](Cc1ccc(O)cc1)NC(=O)[C@H](C)NC(=O)C1CSCCCCCCCCSCC(NC(=O)[C@H](CCCCN)NC(=O)[C@@H]2CCCN2C(=O)[C@H](C)N)C(=O)N[C@@H](C(C)C)C(=O)N[C@@H]([C@@H](C)CC)C(=O)N[C@@H](CC(C)C)C(=O)N[C@@H](CCCCN)C(=O)N[C@@H](CCCCN)C(=O)N[C@@H](C)C(=O)N1)C(=O)N[C@@H](CC(C)C)C(=O)N[C@@H](CO)C(=O)O (stereo partly shown) [IDP-P1708160] (H-APK[ξC]VILKKA[ξC]AYILS-OH; linker 4-11 via Octanediyl(1,8); N-terminus and C-terminus assumed) | 48 | 65 ± 17 | – | – | – | IC50 ([1]; 24 h): 35 µM; IC50 ([1]; 72 h): 5 µM
8 | CC[C@H](C)[C@@H]1NC(=O)[C@H](Cc2ccc(O)cc2)NC(=O)[C@H](C)NC(=O)[C@H]([C@@H](C)O)NC(=O)[C@H](C)NC(=O)C(C)(NC(=O)[C@H](CCCCN)NC(=O)[C@H](CC(C)C)NC(=O)[C@@H](NC(=O)[C@@H](NC(=O)[C@@H](NC(=O)[C@H](CCCCN)NC(=O)[C@@H]2CCCN2C(=O)[C@H](C)N)C(C)C)C(C)C)[C@@H](C)CC)CCCCCCC=CCCCC(C)(C(=O)N[C@H](C(=O)O)C(C)C)NC(=O)[C@H](CC(C)C)NC1=O (stereo partly shown) [IDP-S23, APKVVILKXATAYILXV] (H-APKVVILK[X1]ATAYIL[ξαMeNle(6-ylidene)]V-OH; staple 9-16) | – | – | > 100 | > 100 | > 100 | –
9 | RQIKIWFQNRRMKWKKNELKRAFAALRDQI [Int-HI-S6A-F8, reference compound] | > 100 | > 100 | – | – | – | IC50 [3]: > 100 µM
